From US20230000894A1, “TREATING MITOCHONDRIAL DNA DEPLETION DISORDERS” (MITORAINBOW THERAPEUTICS, INC., priority 2019, published 2023)

Experiments:
[1] = Systemic exposure of dC and dT after oral dCMP+dTMP vs intravenous dC(P2)dT (Example 1); assay type: in vivo; conditions: for higher oral dose needed to deliver comparable plasma exposure of the corresponding nucleoside compared with intravenous dC(P2)dT / metabolism in vivo (detectability of administered labeled analyte in plasma): in vivo
Experimental: The systemic exposure of two mononucleotides (dCMP and dTMP) and their corresponding mononucleosides (dC and dT) following oral dosing of two mononucleotides (dCMP & dTMP) vs. intravenous dosing of a dinucleotide (dC(P2)dT) was determined. Test articles were prepared as follows:
Unlabeled test articles: dC=Deoxycytidine (nucleoside) dT=Deoxythymidine (nucleoside) dCMP=Deoxycytidine monophosphate (mononucleotide) dTMP=Deoxythymidine monophosphate (mononucleotide) dC(P2)dT or dT(P2)dC=Deoxycytidine-deoxythymidine diphosphate (dinucleotide) Labeled test articles: dC*=^15N3 labeled dC (labeled nucleoside) dT**=^13C10 and ^15N2 labeled dT (labeled nucleoside) The corresponding labeled nucleotides are dC*MP and dT**MP The corresponding labeled dinucleotide is dC*(P2)dT** or dT**(P2)dC*.
The nucleosides (dC and dT) and their corresponding monophosphate nucleotides (dCMP and dTMP) are naturally produced in the body. In order to differentiate naturally occurring vs exogenously administered dC/dT and dCMP/dTMP, a mixture of labeled dC*MP/dT**MP and unlabeled dCMP/dTMP was dosed via oral route, and a mixture of labeled dC*(P2)dT** and unlabeled dC(P2)dT via I.V. route. The labeled test articles served as tracers for the determination of systemic levels of exogenous dC/dT and dCMP/dTMP following dosing.
Plasma samples were then analyzed for the following analytes: dT**, dC*, dT**MP, dC*MP, and dC*(P2)dT**.
To correct for total TA (labeled+unlabeled) administered, the plasma levels of labeled analytes were multiplied by 10 and 5 for the P.O. and I.V. treatment groups, respectively. In addition, the total TA dose administered by P.O route was 1000 mg/kg (900 mg/kg unlabeled+100 mg/kg labeled) and 10 mg/kg (8 mg/kg unlabeled and 2 mg/kg labeled) for P.O. and I.V. treatment groups, respectively. To normalize by unit dose of TA administered the plasma levels of analytes were divided by 1000 and 10 for P.O. and I.V. treatment groups, respectively. The results of the label-corrected and dose-normalized levels of dT and dC for P.O. and I.V. routes of administration are shown in FIG. 2.
The differences in the AUC0-24h for I.V. vs. P.O. for both analytes are statistically different (p<0.01, t-test). The ratios of I.V./P.O. AUC(0-24h)'s are approximately 350 for dT and […].

[2] = Systemic exposure of dC and dT after a single I.V. vs one and two S.C. injections of dC(P2)dT (Example 2); assay type: in vivo; conditions: rats, 10 mg/kg total per dose (2 labeled + 8 unlabeled), initial 24 h post-dose
Experimental: The systemic exposure of dC and dT following a single I.V. injection of dC(P2)dT vs one and two subcutaneous (S.C.) injections of dC(P2)dT was compared, where the second S.C. injection is administered 24 h after the first.
Plasma levels of label-normalized dT and dC levels following a single I.V. and one and two S.C. administrations of labeled and unlabeled dC(P2)dT groups are shown in FIG. 4.

**Q.** For `Nc1ccn([C@H]2C[C@H](O)[C@@H](COP(=O)(O)O)O2)c(=O)n1` [dCMP, Deoxycytidine monophosphate], which “higher oral dose needed to deliver comparable plasma exposure of the corresponding nucleoside compared with intravenous dC(P2)dT” value [1] is on record?
**A.** approximately 110 fold

**Q.** Which “metabolism in vivo (detectability of administered labeled analyte in plasma)” value [1] does the source give for `Cc1cn([C@H]2C[C@H](O)[C@@H](COP(=O)(O)O)O2)c(=O)[nH]c1=O` [dT**MP] here?
**A.** rapid metabolism

**Q.** Which “ratio of plasma AUC0-24h I.V. vs P.O. for dC” value ([1]; label-corrected, dose-normalized total dC in plasma, I.V. dC(P2)dT 10 mg/kg total vs P.O. dCMP+dTMP 1000 mg/kg total, p<0.01, t-test) does the source give for “Deoxycytidine-deoxythymidine diphosphate [dC(P2)dT]” here?
**A.** ~110 fold

**Q.** And the “ratio of plasma AUC0-24h I.V. vs P.O. for dT” value ([1]; label-corrected, dose-normalized total dT in plasma, I.V. dC(P2)dT 10 mg/kg total vs P.O. dCMP+dTMP 1000 mg/kg total, p<0.01, t-test)?
**A.** approximately 350 fold

**Q.** And the “mean AUC0-24h of dT and dC in plasma, I.V. vs one and two S.C. administrations” value [2]?
**A.** not statistically different

**Q.** Which “higher oral dose needed to deliver comparable plasma exposure of the corresponding nucleoside compared with intravenous dC(P2)dT” value [1] does the source give for `Cc1cn([C@H]2C[C@H](O)[C@@H](COP(=O)(O)O)O2)c(=O)[nH]c1=O` [dTMP, Deoxythymidine monophosphate] here?
**A.** approximately 350 fold

**Q.** For `Nc1ccn([C@H]2C[C@H](O)[C@@H](COP(=O)(O)O)O2)c(=O)n1` [dC*MP], which “metabolism in vivo (detectability of administered labeled analyte in plasma)” value [1] is on record?
**A.** rapid metabolism
